Measurements published in ChEMBL document CHEMBL3751686, “Novel benzoxepine-1,2,3-triazole hybrids: synthesis and pharmacological evaluation as potential antibacterial and anticancer agents” (Medchemcomm, 2015).
Converted amounts (≈) assume the structure as drawn. The source made the active and inactive calls. No cut-off for these calls is given here.

Key:
[1] = Cytotoxicity against human HCT15 cells after 48 hrs by SRB assay; type: functional; details: HCT-15, 48 h; for CC50: read-out: LC50 (the source's name)
[2] = system: NCI-H226; experiment: Cytotoxicity against human NCI-H226 cells after 48 hrs by SRB assay; type: functional; details: NCI-H226, 48 h
[3] = system: Escherichia coli; experiment: Antibacterial activity against Escherichia coli MTCC 1563 at 0.4 mg/50 uL incubated overnight by agar-well diffusion analysis; type: functional
[4] = system: Klebsiella pneumoniae; experiment: Antibacterial activity against Klebsiella pneumoniae at 0.4 mg/50 uL incubated overnight by agar-well diffusion analysis; type: functional
[5] = system: Pseudomonas aeruginosa; experiment: Antibacterial activity against Pseudomonas aeruginosa MTCC 6642 at 0.4 mg/50 uL incubated overnight by agar-well diffusion analysis; type: functional
[6] = Cytotoxicity against human HCT15 cells assessed as cell growth at 80 ug/ml after 48 hrs by SRB assay; type: functional; details: HCT-15, 48 h, read-out: Activity
[7] = system: Staphylococcus aureus; experiment: Antibacterial activity against Staphylococcus aureus at 0.4 mg/50 uL incubated overnight by agar-well diffusion analysis; type: functional
[8] = system: HEK293; experiment: Cytotoxicity against HEK293 cells after 48 hrs by SRB assay; type: cell-based; details: human, hek293, 48 h
[9] = system: NCI-H226; experiment: Cytotoxicity against human NCI-H226 cells assessed as cell growth at 80 ug/ml after 48 hrs by SRB assay; type: functional; details: NCI-H226, 48 h, read-out: Activity
[10] = system: Pseudomonas aeruginosa; experiment: Antibacterial activity against Pseudomonas aeruginosa MTCC 6642 at 0.04 mg/50 uL incubated overnight by agar-well diffusion analysis; type: functional
[11] = system: Klebsiella pneumoniae; experiment: Antibacterial activity against Klebsiella pneumoniae at 0.04 mg/50 uL incubated overnight by agar-well diffusion analysis; type: functional
[12] = system: Staphylococcus aureus; experiment: Antibacterial activity against Staphylococcus aureus at 0.04 mg/50 uL incubated overnight by agar-well diffusion analysis; type: functional
[13] = system: Escherichia coli; experiment: Antibacterial activity against Escherichia coli MTCC 1563 at 0.04 mg/50 uL incubated overnight by agar-well diffusion analysis; type: functional

Compound | diameter of the inhibition zone (DIZ) [3] | diameter of the inhibition zone (DIZ) [4] | diameter of the inhibition zone (DIZ) [5] [mm] | diameter of the inhibition zone (DIZ) [7] [mm] | other results
COc1cccc2c1C(=O)c1c(O)c3c(c(O)c1C2=O)C[C@@](O)(C(=O)CO)C[C@@H]3O[C@H]1C[C@H](N)[C@H](O)[C@H](C)O1 [DOXORUBICIN] | – | – | – | – | GI50 [1]: < 10 µg/mL; TGI [1]: 36.1 µg/mL (≈ 66.4 µM); CC50 [1]: > 80 µg/mL; GI50 [2]: < 10 µg/mL; TGI [2]: < 10 µg/mL
Cc1cccc2c1OCCC(Cn1cc(-c3ccccc3)nn1)=C2Cl | 25 mm | 9 mm | 11 | – | –
ClC1=C(Cn2cc(-c3ccccc3)nn2)CCOc2ccccc21 | inactive | 18 mm | 13 | 7 | growth at 80 µg/mL [6]: 61%; Activity [8]: Non-toxic; growth at 80 µg/mL [9]: 73%
CCn1cc(C(=O)O)c(=O)c2cc(F)c(N3CCN(C)CC3)cc21 [PEFLOXACIN] | – | – | – | – | diameter of the inhibition zone (DIZ) [10]: 28 mm; diameter of the inhibition zone (DIZ) [11]: 35 mm; diameter of the inhibition zone (DIZ) [12]: 36 mm; diameter of the inhibition zone (DIZ) [13]: 31 mm
Cc1ccc2c(c1)C(Cl)=C(Cn1cc(COc3ccc4c(C)cc(=O)oc4c3)nn1)CCO2 | inactive | 12 mm | 16 | – | –
ClC1=C(Cn2cc(COc3cccc4cccnc34)nn2)CCOc2ccc(Cl)cc21 | 10 mm | 12 mm | 10 | 12 | –
Cc1ccc2c(c1)C(Cl)=C(Cn1cc(COc3ccc4ccc(=O)oc4c3)nn1)CCO2 | 16 mm | – | 18 | 10 | GI50 [1]: 52.5 µg/mL (≈ 117 µM); TGI [1]: > 80 µg/mL; CC50 [1]: > 80 µg/mL; growth at 80 µg/mL [6]: 33%; Activity [8]: Non-toxic; growth at 80 µg/mL [9]: 8%; GI50 [2]: 41.3 µg/mL (≈ 91.8 µM); LC50 [2]: > 80 µg/mL; TGI [2]: > 80 µg/mL
Cc1ccc(-c2cn(CC3=C(Cl)c4cccc(C)c4OCC3)nn2)cc1 | 20 mm | 17 mm | 15 | 7 | growth at 80 µg/mL [6]: 58%; Activity [8]: Non-toxic
Cc1cccc2c1OCCC(Cn1cc(COc3ccc4c(C)cc(=O)oc4c3)nn1)=C2Cl | – | – | 11 | 11 | –
Cc1ccc(-c2cn(CC3=C(Cl)c4cc(Cl)ccc4OCC3)nn2)cc1 | 13 mm | 10 mm | 12 | – | –
O=c1ccc2ccc(OCc3cn(CC4=C(Cl)c5ccccc5OCC4)nn3)cc2o1 | inactive | 11 mm | 12 | 10 | –
Cc1ccc(-c2cn(CC3=C(Cl)c4cc(C)ccc4OCC3)nn2)cc1 | 10 mm | – | 10 | 8 | –
Cc1ccc(-c2cn(CC3=C(Cl)c4ccccc4OCC3)nn2)cc1 | 9 mm | – | 12 | 10 | growth at 80 µg/mL [6]: 55%; Activity [8]: Non-toxic
O=c1ccc2ccc(OCc3cn(CC4=C(Cl)c5cc(Cl)ccc5OCC4)nn3)cc2o1 | inactive | 12 mm | 11 | 10 | –
Cc1cccc2c1OCCC(Cn1cc(COc3ccc4ccc(=O)oc4c3)nn1)=C2Cl | – | inactive | 14 | 12 | growth at 80 µg/mL [6]: 86%; Activity [8]: Non-toxic
Cc1cc(=O)oc2cc(OCc3cn(CC4=C(Cl)c5ccccc5OCC4)nn3)ccc12 | 11 mm | 7 mm | 12 | 11 | –
Cc1cccc2c1OCCC(Cn1cc(COc3cccc4cccnc34)nn1)=C2Cl | – | – | 18 | 10 | –
Cc1ccc2c(c1)C(Cl)=C(Cn1cc(-c3ccccc3)nn1)CCO2 | – | 9 mm | 16 | – | –
ClC1=C(Cn2cc(COc3cccc4cccnc34)nn2)CCOc2ccccc21 | 11 mm | inactive | – | 8 | –
Cc1cc(=O)oc2cc(OCc3cn(CC4=C(Cl)c5cc(Cl)ccc5OCC4)nn3)ccc12 | 14 mm | – | 18 | 12 | –
